Measured values as given in patent US20240238297A1, “USES AND METHODS FOR RECURRENT PRIMARY CNS NEOPLASMS” (CHIMERIX, INC., priority 2021, published 2024).
Where a name gives a salt, the structure may show the parent alone.

What was measured:
[1] = pharmacokinetics/toxicokinetics in dogs; settings: dog, in vivo
[2] = tested on: diffuse midline glioma, H3 K27M-mutant; settings: patients with DMG H3K27M; cited from earlier work
high grade gliomas = settings: advanced cancer patients; cited from earlier work
endometrial cancer = settings: advanced cancer patients; cited from earlier work
[3] = solubility in water, ONC-201 dihydrochloride salt vs free base; assay type: physicochemical
Protocol: (§1) Dihydrochloride salts of compounds within the class of impiridones of which ONC-206 is a member, achieve unexpected technical effects. […] In addition, after two months at 25° C. and at 40° C., the percentage of impurities in the dihydrochloride salt is not detected and 3%, respectively; while for the free base the corresponding the percentage of impurities is 20% and 24%, respectively. This technical effect appears to extend to the class of impiridones.

[4] = stability: percentage of impurities after two months; assay type: physicochemical
Protocol: as §1

## O=C1C2=C(CCN(Cc3ccccc3)C2)N2CCN=C2N1Cc1ccc(F)cc1F [ONC206, 7-benzyl-4-(2,4-difluorobenzyl)-2,4,6,7,8,9-hexahydroimidazo[1,2-a]pyrido[3,4-e]pyrimidin-5(1H)-one]
[1]; beagle
  half-life: 0.7 to 7.1 h
[1]; both, Beagle, po
  CL/F: 83.3 to 1680 mL/min/kg
  Vd/F: 25.2 to 259 L/kg
  half-life: 0.7 to 7.1 h

## Cc1ccccc1CN1C(=O)C2=C(CCN(Cc3ccccc3)C2)N2CCN=C12 [ONC201, 7-benzyl-4-(2-methylbenzyl)-2,4,6,7,8,9-hexahydroimidazo[1,2-a]pyrido[3,4-e]pyrimidin-5(1H)-one]
[2]
  tumor response in patients: induced durable tumor regressions
High grade gliomas
  RANO response: several patients achieved a RANO response
Endometrial cancer
  PFS compared to historical control: several patients experienced prolonged PFS

## Cc1ccccc1CN1C(=O)C2=C(CCN(Cc3ccccc3)C2)N2CCN=C12 [ONC-201 dihydrochloride salt, 7-benzyl-4-(2-methylbenzyl)-2,4,6,7,8,9-hexahydroimidazo[1,2-a]pyrido[3,4-e]pyrimidin-5(1H)-one]
[3]
  solubility in water: greater than 50 mg/mL
[4]; after two months at 25° C.
  percentage of impurities: not detected
[4]; after two months at 40° C.
  percentage of impurities: 3%

## Cc1ccccc1CN1C(=O)C2=C(CCN(Cc3ccccc3)C2)N2CCN=C12 [ONC-201 free base, 7-benzyl-4-(2-methylbenzyl)-2,4,6,7,8,9-hexahydroimidazo[1,2-a]pyrido[3,4-e]pyrimidin-5(1H)-one]
[3]
  solubility in water: less than 1 mg/mL
[4]; after two months at 25° C.
  percentage of impurities: 20%
[4]; after two months at 40° C.
  percentage of impurities: 24%
